Drawing on patent US5541290A, “Optically pure calpain inhibitor compounds” (priority 1993, dated 1996), this text covers IC50 and Ki for 18 molecules.

Structures can show the parent of a compound that is named as a salt.

One experiment addresses T1, Calpain I (porcine erythrocytes) (Sus scrofa, UniProt P35750).
T1 construct: Calpain I (porcine erythrocytes, Nacalai Tesque, Kyoto, Japan); purchased Nacalai Tesque, Kyoto, Japan; host or cells: porcine erythrocytes (natural tissue source)
T1 sequence (P35750 1-714): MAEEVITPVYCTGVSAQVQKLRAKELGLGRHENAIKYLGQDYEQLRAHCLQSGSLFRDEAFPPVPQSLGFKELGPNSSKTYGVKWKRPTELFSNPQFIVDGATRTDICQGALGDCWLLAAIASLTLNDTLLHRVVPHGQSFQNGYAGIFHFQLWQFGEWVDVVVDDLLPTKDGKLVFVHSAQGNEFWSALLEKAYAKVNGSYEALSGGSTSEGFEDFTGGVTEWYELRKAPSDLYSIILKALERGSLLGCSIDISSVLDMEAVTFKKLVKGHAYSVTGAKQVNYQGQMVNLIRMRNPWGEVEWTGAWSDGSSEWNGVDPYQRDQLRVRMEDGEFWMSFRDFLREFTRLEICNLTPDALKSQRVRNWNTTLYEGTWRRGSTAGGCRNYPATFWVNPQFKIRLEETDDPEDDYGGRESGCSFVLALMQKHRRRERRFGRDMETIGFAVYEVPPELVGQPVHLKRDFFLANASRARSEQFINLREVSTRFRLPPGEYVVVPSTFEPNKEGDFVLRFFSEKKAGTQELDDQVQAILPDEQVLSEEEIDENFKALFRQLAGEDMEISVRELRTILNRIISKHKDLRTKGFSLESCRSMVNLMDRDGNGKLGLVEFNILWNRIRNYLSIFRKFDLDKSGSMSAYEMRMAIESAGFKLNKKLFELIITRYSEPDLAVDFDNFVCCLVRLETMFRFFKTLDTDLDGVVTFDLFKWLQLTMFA
T1 sequence (P04574 1-266 partner): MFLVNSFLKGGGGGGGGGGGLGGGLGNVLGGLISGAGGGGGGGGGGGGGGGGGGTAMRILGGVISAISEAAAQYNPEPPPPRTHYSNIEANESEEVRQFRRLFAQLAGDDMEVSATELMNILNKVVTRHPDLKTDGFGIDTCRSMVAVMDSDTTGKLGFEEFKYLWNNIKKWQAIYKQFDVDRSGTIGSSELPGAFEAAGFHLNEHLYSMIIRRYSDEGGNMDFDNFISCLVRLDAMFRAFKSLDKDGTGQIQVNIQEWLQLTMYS
Kind of experiment: Calpain assay, continuous spectrofluorometric assay with SLY-MCA. The class given is biochemical.
Conditions: not given
Turning to `CCNC(=O)C(=O)C(Cc1ccccc1)NC(=O)C(CC(C)C)NC(=O)OCc1ccccc1` [Cbz-L-Leu-D-Phe-CONH-Et], the IC50 – broadly, the concentration that gives 50% inhibition – was over 1.5 µM.

A further experiment has as its target T1, Calpain I (porcine erythrocytes). The description is as above. Type of experiment: biochemical. To be noted: SLY-MCA substrate, 25° C., pH 7.5, competitive inhibition fit, read-out: Ki, pCal I. The procedure:
Calpain activity was monitored using a continuous spectrofluorometric assay with succinyl-Leucyl-Tyrosyl-4-methylcoumaryl-γ-amide (SLY-MCA); Sasaki, T.; Kikuchi, T.; Yumotogo, N.; Yoshimura, N. and Murachi, T. J. Biol. Chem. 1984, 259. 12489-12494) at 25° C. using a Hitachi F4500 fluorescence spectrophotometer with a temperature controlled cuvette holder. The substrate solution was composed of SLY-MCA (2-0.2 mM) in 50 mM MOPS, pH 7.5, 5 mM CaCl2, 5 mM β-mercaptoethanol and 1% DMSO. Solutions of the inhibitors (100-500 nM) were prepared in the same buffer mixture as substrate. Calpain I (porcine erythrocytes, Nacalai Tesque, Kyoto, Japan) was diluted to 180 ug/mL in 20 mM HEPES, pH 7.5, 2 mM EDTA, 2 mM EGTA and 5 mM DTT. The substrate solution (0.9 mL) was placed in a 1 cm cuvette and to this was added either the inhibitor solution (0.05 mL) or the buffer (0.05 mL) as a control. The reaction was initiated by addition of the calpain I solution (0.05 mL) and the increase in fluorescence (excitation at 380 nm; emission at 460 nm) was monitored for 3 to 10 min. The initial velocities were then used to obtain the values of Vmax, Km and Ki by an iterative least squares fit of the data to the following equation for competitive inhibition according to the method of W. W. Cleland, Biochim. Biophys. Acta 67: 173 (1963).
V={Vmax ·[SLY-MCA]}/{(1+Inh]/Kl)·Km+[SLY-MCA]}
Turning to `CCNC(=O)C(=O)C(CC)NC(=O)C(CC(C)C)NC(=O)OC(C)(C)C` [Boc-L-Leu-L-Abu-CONH-Et], the Ki (usually a measure of affinity in units of concentration, obtained from inhibition or displacement) was 0.17 ± 0.015 µM.

As to `CCC(NC(=O)C(CC(C)C)NC(=O)OCc1ccccc1)C(=O)C(=O)NCCS(=O)(=O)CC` [Cbz-L-Leu-L-Abu-C(O)-NH-(CH2)2 -SO2 -ET, Cbz-L-Leu-L-Abu-C(O)--NH--(CH2)2 --SO2 --Et], the Ki amounted to 0.129 ± 0.015 µM.

For `CC(C)C[C@H](NC(=O)OCc1ccccc1)C(=O)N[C@@H](Cc1ccccc1)C(=O)C(=O)N[C@@H](C)C(=O)O` [Cbz-L-Leu-L-Phe-C(O)-L-Ala-OH], the Ki came out at 0.718 ± 0.084 µM.

Turning to `COC(=O)C(C)NC(=O)C(=O)C(Cc1ccccc1)NC(=O)C(CC(C)C)NC(=O)OCc1ccccc1` [Cbz-L-Leu-L-Phe-C(O)-L-Ala-OMe], the inhibition constant (Ki) amounted to 0.092 ± 0.006 µM.

In the case of `CCC(NC(=O)C(=O)C(Cc1ccccc1)NC(=O)C(CC(C)C)NC(=O)OCc1ccccc1)C(=O)OC` [Cbz-L-Leu-L-Phe-C(O)-L-α-Abu-OMe], the Ki amounted to 0.141 ± 0.022 µM.

Turning to `COC(=O)[C@H](Cc1ccc(OC(C)(C)C)cc1)NC(=O)C(=O)C(Cc1ccccc1)NC(=O)[C@H](CC(C)C)NC(=O)OCc1ccccc1` (stereo partly drawn) [Cbz-L-Leu-L-Phe-C(O)-Tyr(O-t-butyl)-OMe], the Ki turned out to be 0.273 ± 0.017 µM.

On to `CCCC(NC(=O)C(CC(C)C)NC(=O)C(N)Cc1ccccc1)C(=O)C(=O)NCC` [D-Phe-L-Leu-L-Norvaline-CONH-Et.HCl, D-Phe-L-Leu-L-Norvaline-CONH-Et·HCl], for which the Ki is 0.244 ± 0.011 µM.

For the molecule `CCNC(=O)C(=O)C(CC)NC(=O)C(CC(C)C)NC(=O)N(C)C` [Dimethylurea-L-Leu-L-Abu-CONH-Et], the inhibitory constant (Ki) was determined as 0.332 ± 0.029 µM.

As for `CCCC(NC(=O)C(CC(C)C)NC(=O)C(N)Cc1ccccc1)C(=O)C(=O)NCC` [L-Phe-L-Leu-L-Norvaline-CONH-Et.HCl, L-Phe-L-Leu-L-Norvaline-CONH-Et·HCl], the Ki stood at 0.116 ± 0.005 µM.

For the molecule `CCNC(=O)C(=O)C(CC)NC(=O)C(CC(C)C)NC(=O)N1CCOCC1` [Morpholinourea-L-Leu-L-Abu-CONH-Et], the Ki amounted to 0.199 ± 0.016 µM.

Regarding Boc-D-Phe-L-Leu-L-Norvaline-CONH-Et, the Ki was 0.093 ± 0.004 µM.

As for Boc-L-Phe-L-Leu-L-Norvaline-CONH-Et, the Ki is 0.061 ± 0.002 µM.

In the case of Cbz-L-Leu-L-Abu-CONH-Et, the Ki amounted to 0.077 ± 0.01 µM.

Regarding Cbz-L-Leu-L-Norvaline-CONH-Et, the Ki worked out at 0.078 µM.

As for Cbz-L-Leu-L-Phe-C(O)-L-Norleucine-OMe, the Ki was found to be 0.0766 ± 0.0052 µM.

In the case of Cbz-L-Leu-L-Phe-C(O)-Phe-OMe, the Ki came out at 0.031 ± 0.012 µM.

For Cbz-L-Leu-L-Phenylalanine-CONH-Et, the Ki came to 0.089 µM.
